Experimental data reported in EP1785722A1, “Microbial, viral and mammalian susceptibility to agents that affect cell growth and metabolism, and compatibility of compounds” (Stratos Bio Ltd., priority 2005, dated 2007).
“Also recorded” adds a separate entry of the source.

Key:
[1] = tested on: respiring E.coli; experiment: Microcalorimetry of respiring E. coli in glucose buffer; assay type: cell-based; conditions: for response on addition to respiring E.coli: highest concentration added 300µg/ml
Method: E.coli was suspended in 10% DMSO prior to freezing and the viable counts were for batch 1: pre-freeze: 4.0 ± 0.6_ x 10^10 cfu/ml and post -freeze 2.0 ± 0.44 x 10^10 cfu/ml and for batch 2: pre-freeze: 3.45 ± 0.58 x 10^10 cfu/ml and post-freeze 2.93 ± 0.43 x 10^10 cfu/ml. The freezing rate for both batches was 20°C/min the survival rate was 50% for batch 1 and 85% for batch 2. These differences may have been due to batch 1 being kept for 24h at 4°C before being frozen.
The respiration experiments were carried out in glucose buffer at different pH. The respiration curves obtained from batch 1 (inoculum 2 x 10^10 cfu/ml) and batch 2 Inoculum 3.2 x 10^10 cfu/ml) were essentially similar and a mean was used as a reference). The respiration experiments were carried out at pH 7 for polymyxin and Znbacitracin and at pH 8 for neomycin. No differences in p-t control curves could be observed at pH 7 or pH 8.
The p-t curves rose and reached a plateau as has been observed for respiration of yeasts and some 20 min later fell to a lower plateau value. Prior incubation of the cells in the buffered glucose for periods up to 20 min before presentation to the calorimeter could reduce or entirely remove this effect.

[2] = tested on: Bordetella Bronchiseptica; experiment: Flow microcalorimetry (p-t curves) of growing Bordetella bronchiseptica; assay type: cell-based
Excerpt: (§1) • a) For B. pumilus a simple glucose/salts medium was employed with a glucose concentration of 0.1 % w/v. • b) For Bord. bronch. The above salts medium was used with the addition of nicotinic acid, methionine and glutamic acid. Glutamic acid was used at a concentration of 0.2% w/v. • c) For M. flavus a semidefined medium was employed, using the same salts as a B. pumilus but also Na-citrate, biotin and protease peptone. In the calorimeter a concentration of 0.4% protease peptone was used. All medium constituents (except protease) were analytical reagents. The calorimetric medium was therefore a final concentration of 100ml of either solution a, b or c freshly autoclaved for 15 mins exactly at 121°C, 151b/sq inch. Glucose was added to the appropriate solution after autoclaving.
(§2) To the vertical face of the vessel close to its base, equidistantly spaced around the circumference, ports were fitted for an oxygen electrode and for sampling/inoculation. The fermenter was closed with a flat flanged glass lid which had five ports accommodating respectively, gas inlet tube, gas exhaust (via air condenser), inlet and outlet flow-lines to and from the calorimeter. The fermenter and lid was sealed with a p.t.f.e. gasket and clamped with a metal clip. The fermenter was placed on a magnetic stirring unit in a water jacket which allowed circulation of the thermostatically controlled water at 30°C or 37°C. The fermenter which contained a Teflon coated magnetic stirring bar, was sterilised by autoclaving.
(§3) For a typical calorimetric incubation the medium was passed through the calorimetric vessel at the same flow rate and temperature as those used in the experiment to establish a steady baseline deflection. The following operations then took place to a strict timetable. The liquid nitrogen stored ampoule was thawed at 38°C for 3 min and then stirred for 20 sec on a whirlimixer. The bacterial suspension (0.5-1.5ml) volumes was inoculated into the medium (100ml) two minutes after completion of thawing. A Gilson automatic pipette was used for inoculation. The calorimeter inlet flow-line was placed in the incubation medium 30 seconds after inoculation. The flowing incubation medium reached the calorimetric vessel two min after inlet flow-line insertion. At this time the recording of the p-t curves was started. Eight min after inoculation the outflow from the calorimeter was returned to the fermenter (after the "baseline" medium had run to waste but before the inoculated medium ran to waste) thus making a closed system. Aeration was started as soon as the inlet tube was inserted in the fermenter. Microbiological purity of the culture was checked by plating out a sample of the culture at the end of each incubation on nutrient agar (lab M).
(§4) The output of calorimetric experiments is a plot of power (energy evolution per unit of time) as a function of time. The unit of power (p) is the Watt (W) and the unit of time is the hour (h). In some experiments seconds (s) were used as time unit.
After successful freezing of Bord. bronch p-t curves for growth in different concentrations of glutamic acid from 0.1%-0.5% were obtained. It was concluded that a medium containing 0.2% glutamic acid would be sufficient for a good deflection in the microcalorimeter minimising the possibility of the bacteria clogging in the microcalorimetric cell or in the teflon tubes leading to and from the microcalorimetric cell. A pH of 7 was used in all the following experiments as this is the optimum pH for polymyxin - lipid binding.
It was of vital importance to maintain a constant oxygen tension; this was achieved by using saturation concentrations of oxygen. It was decided to use the height of the small peak as full scale deflection for the antibiotic assay as the increase in power was exponential up to this point and the peak occurred at a convenient time. This choice of assay point was empirical. The inoculum was 1.1 ± 0.06 x 10^8 cfu/ml for all the microclalorimetric incubations. […]

[3] = tested on: Micrococcus flavus; experiment: Flow microcalorimetry (p-t curves) of growing Micrococcus flavus; assay type: cell-based
Excerpt: as §1, §2, §3, §4
This point occurred at an increase in deflection of 29.5% from the baseline value.

[4] = tested on: E. coli; experiment: MIC / MBC against E. coli; assay type: cell-based
[5] = tested on: M. flavus; experiment: Electron microscopy of M. flavus treated with Znbacitracin; assay type: cell-based, Micrococcus flavus; conditions: even at 0.05 µg/ml (0.25 x MIC)
Excerpt: No differences could be observed between fresh and frozen cells treated with antibiotic, which is as expected since no observable damage had occurred to the bacterial cells during freezing/thawing.

[6] = tested on: B. pumilus; experiment: MIC determination against B. pumilus; assay type: cell-based, Bacillus pumilus; conditions: as printed in table heads
Method: (§5) However when the concentration of organisms was 5.1 x 10^6 cfu/ml which was the inoculum used in the microcalorimetric incubations the MIC was increased to 2 µg/ml; the effect was also bacteriostatic.

[7] = tested on: Micrococcus flavus; experiment: MIC / MBC against Micrococcus flavus; assay type: cell-based
[8] = tested on: Bacillus pumilus; experiment: Flow microcalorimetry (p-t curves) of growing Bacillus pumilus; assay type: cell-based; conditions: ZNB 20 ug/ml; pH 8.00
Excerpt: as §1, §2, §3, §4, §5

[9] = tested on: E. coli; experiment: Electron microscopy of E. coli treated with ZNB; assay type: cell-based; conditions: response not lethal for the bacterium; listed as ZNB
[10] = tested on: Bordetella Bronchiseptica; experiment: MIC / MBC against Bordetella bronchiseptica; assay type: cell-based; conditions: as printed in table heads
[11] = Animal case study: antibiotic treatment of a cat; assay type: in vivo; conditions: domestic cat with a scratch to the eye; 30 days of treatment
Method: A domestic cat was given a mixture of antibiotics as eye drops in response to a scratch to the eye. […] Previously the cat had never been given milk (as many animals are allergic to cow's milk). The cat was now given full cream milk as part of a regimen to promote weight gain (the cat also continued to eat its usual amount of daily cat food throughout the period of weight loss). Initially weight was gained but within 24 hours weight loss resumed (presumably because the pathogenic bacteria/viruses had found a way of utilising lactose). An autopsy indicated bone-cancer as cause of death. The body wasting caused by the weight loss was very similar to that observed in early AIDS cases. However the cat had been regularly vaccinated against HTLV 1 through its 16 year life (and had never been ill in that period).

[12] = 0.02 ug/ml added at 50 % of p-t curve
[13] = 0.6-1 ug/ml added at 0 % of p-t curve

## Znbacitracin
[1]; ZNB 300 ug/ml - 1000 ug/ml
  Comments: Resistance demonstrated
[1]; ZNB 300 ug/ml - 1000 ug/ml, pH 7
  Observed effect on p-t curves: No response
[1]
  response on addition to respiring E.coli: No response could be observed
[1]; listed as ZNB
  response on addition to respiring E.coli: no effect on power output
[2]; ZNB added to growing cultures (Fig. 17)
  effect on growing cultures: a small plateau was reached before growth reoccurred
[2]; single antibiotic at its MIC (0.25ug/ml Neo; 100ug/ml ZNB), added at 50 % of p-t curve
  Observed effect on p-t curves: Slightly delayed peak
[3]
  concentrations at which no further response could be recorded: higher than 4 µg/ml
  concentrations at which no variation in p-t curves could be observed: lower than 0.02 µg/ml
[3]; [12]
  Comments: No inhibition observed
  Observed effect on p-t curves: Standard growth curve
[3]; 0.02-0.8 µg/ml (0.1 x MIC-4 x MIC)
  appearance of p-t curves: a power plateau immediately after addition of the antibiotic for varying periods of time and then an increase in power followed by a further small peak
[3]; 0.1-1 ug/ml added at 50 % of p-t curve
  Peak of growth curve later than standard curve: Peak of growth curve occurs 60 min later than standard curve
[3]; 0.1-1 ug/ml added at 50 % of p-t curve, CV 1.8%
  Observed effect on p-t curves: Linear log dose response curve 2 hours after addition of antibiotic CV 1.8%
[3]; 0.2-0.3 ug/ml added at 0 % of p-t curve
  Comments: Initial growth promoting effect - delayed peak after 9 hours
[3]; 0.2-0.3 ug/ml added at 0 % of p-t curve, CV 2.3%, n=10
  Observed effect on p-t curves: 1.4 standard curve CV =2.3% , n=10
[3]; [13]
  Comments: Bacteriocidal effect confirmed all bacteria are dead
  Observed effect on p-t curves: Total inhibition of growth
[3]; 1-4 ug/ml added at 50 % of p-t curve, cv 1.4% n=10
  Observed effect on p-t curves: Linear log dose response curve 20 min after addition of antibiotic cv = 1.4% n= 10
[3]; 5 x MIC - 20 x MIC
  appearance of p-t curves: held at a plateau for a varying amount of time and then decreased towards a baseline value
[3]; added at 50 % of p-t curve
  largest dose that could be distinguished: 4 ug/ml largest dose that could be distinguished any higher dose s gave identical dose response curves
[3]; added at inoculum
  concentration with initial growth promoting effect: 0.2 to 0.3 µg/mL
[4]; as printed in table head
  MBC: > 1000 µg/mL
  MIC: > 1000 µg/mL
[4]; text
  MIC: > 1000 µg/mL
[5]
  effect on the cell surface (electron micrographs): Protrusions on the cell wall can be observed
[6]
  MIC: 20 µg/mL
[7]; as printed in table head
  MBC: Ug/ml MIC & MBC 0.2 ug/ml
[7]; listed as ZNB
  MIC: 0.2 µg/mL
[8]
  Observed effect on p-t curves: No effect on p-t curve
[9]
  effect on bacterial membrane (electron micrographs): protrusions have been observed on the bacterial membrane; also recorded: did actually cause protrusions to occur on the bacterial membrane
[10]
  MIC: 100 µg/mL

## CN[C@H](CC(C)C)C(=O)N[C@H]1C(=O)N[C@@H](CC(N)=O)C(=O)N[C@H]2C(=O)N[C@H]3C(=O)N[C@H](C(=O)N[C@H](C(=O)O)c4cc(O)cc(O)c4-c4cc3ccc4O)[C@H](O)c3ccc(c(Cl)c3)Oc3cc2cc(c3O[C@@H]2O[C@H](CO)[C@@H](O)[C@H](O)[C@H]2O[C@H]2C[C@](C)(N)[C@H](O)[C@H](C)O2)Oc2ccc(cc2Cl)[C@H]1O [vancomycin]
[11]
  effect on the eye: without any effect to the eye
